Data on one molecule can be found in patent US20240279201A1, “DUAL WNT SIGNALING PATHWAY INHIBITORS AND AMPK ACTIVATORS FOR TREATMENTS OF DISEASE” (priority 2021, published 2024).

Data set [1] in a line: Pharmacokinetic (PK) studies, oral dose. As to conditions: C57/BL6, mouse, blood, 5 mg/kg. How it is done: The ADMET and PK properties of YA6060 was determined.
PK/Tox. The four selected compounds from in vitro evaluation above are subjected to PK and toxicity assessment in C57/BL6 mice. […] Compound concentrations is determined by LC/MS/MS. PK analysis is carried out on Phoenix Winnolin using non-compartmental analysis and compartment models. Compound accumulation in major tissues, including liver, kidney, heart, brain and intestine, are quantified. […] For study ii, a half number of mice per group are sacrificed immediately after the 3-week course and the remaining after a 2-week washout period to assess delayed toxicity. In toxicity studies, blood is collected upon euthanasia for liver and renal chemistries and complete blood counts, and major organs harvested and examined macro- and microscopically by veterinarian pathologists. It is expected that an understanding of PK properties, such as bioavailability, AUC, clearance, and toxic effects, such as general tolerance and specific toxicity in the liver, kidney, other major organs, and particularly Wnt-dependent tissues, such as intestine, stomach, and skin is established for these selected compounds.

A further data set addresses β-catenin (Homo sapiens (Human), UniProt P35222). Put plainly: Western blotting of β-catenin in HEK293 cells. The data set is classed as cell-based. As to conditions: 100 nM, 24 h. How it is done: (§1) FIG. 6A-FIG. 6E illustrate the development of Axin stabilizers with dual activities of Wnt inhibition and AMPK activation. […] HEK293 cells were used. B&C: 100 nM compounds, 24 h. FIG. 6D is a table showing the activity profile of YA6060. F=bioavailability; soubility is aqueous solubility.
(§2) A dual-luciferase gene reporter assay was used to test inhibitory activities of new compounds on Wnt signaling. […] Axin is also reported to form a complex with AMPK and its upstream kinase LKB1 (FIG. 12A and FIG. 12B) to facilitate AMPK activation. Therefore, the effects of new compounds on AMPK was examined. […] YA6060 and its analogs had dual activities of potent Wnt signaling inhibition and AMPK activation, which were dependent on the levels of scaffolding protein Axin.

Data set [2] can be described thus: Toxicity in normal HEK293 cells. In kind it is cell-based. The conditions noted are these: human. How it is done:
YA6060 has an excellent druglike profile. […] The ADMET and PK properties of YA6060 was determined.

The next data set has as its target Axin 1 (Homo sapiens (Human), UniProt O15169). The data set is described as follows: Western blotting of Axin 1 in HEK293 cells. In kind it is cell-based. As to conditions: 100 nM, 24 h. How it is done: as §1, §2
For orientation: In western blotting, separated proteins are transferred to a membrane and probed.

For the next data set, the system named is TGF-β-treated LX-2 cells. The data set is described as follows: Anti-fibrotic efficacy in TGF-β-treated LX-2 cells. In kind it is cell-based. The conditions noted are these: 24 hours. How it is done: FIG. 9A-FIG. 9C illustrate the anti-fibrotic efficacy of YA6060 in LX-2 cells. LX-2 cells were exposure to TGF-beta with and without different concentrations of YA6060 for 24 hours. FIG. 9A is a gel illustrating Western blot results. FIG. 9B and FIG. 9C are graphs of experimental data illustrating RT-PCR results. FIG. 14A-FIG. 14C illustrate the anti-fibrotic efficacy of YA6060 in LX-2 cells. The effect of YA6060 treatment on the expression of fibrotic markers in LX-2 cells was examined. LX-2 cells were treated with TGF-beta to model fibrosis. FIG. 14A is an image of a Western blot illustrating protein expression of collagen 1, vimentin, and alpha-SMA. […] FIG. 14C is a graph of experimental data illustrating mRNA expression of genes associated with inflammation by RT-PCR. The cells were treated with the indicated concentrations of YA6060 for 24 hours. *P<0.05, **P<0.01. […] The effect of YA6060 treatment on the expression of fibrotic markers in LX-2 cells was examined. LX-2 cells were treated with TGF-beta to model fibrosis. Protein expression of collagen 1, vimentin, and alpha-SMA by Western blotting (FIG. 14A). mRNA expression of collagen 1, vimentin, and alpha-SMA by RT-PCR was examined (FIG. 14B). mRNA expression of genes associated with inflammation by RT-PCR was examined (FIG. 14C). The cells were treated with the indicated concentrations of YA6060 for 24 hours. *P<0.05, **P<0.01. […]

Data set [3] has as its system Wnt/β-Catenin signaling pathway. The data set is described as follows: Wnt signaling luciferase (TOPflash) reporter gene assay. The data set is classed as cell-based. The conditions noted are these: luciferase reporter gene assay; mean of three independent experiments; read-out: IC50 (nM) to inhibit the Wnt signaling activity. The text has this: A dual-luciferase gene reporter assay was used to test inhibitory activities of new compounds on Wnt signaling. […] Therefore, the effects of new compounds on AMPK was examined. […]
Background: In a reporter assay the amount or activity of a reporter protein is the signal.

“And” between values parts separate entries of the source, which are not always exact repeats. Equal values may be shown once.

A word on the half-life: it is how long it takes for the measured level to halve. One may read the Cmax as the highest concentration seen after dosing. One may read the Tmax as the time from dosing to the highest level. As usually defined, the bioavailability is dose-corrected exposure relative to a reference, in per cent. A higher bioavailability goes with good availability. For orientation: IC50 means the concentration that gives 50% inhibition. In turn, `Cc1ccccc1-n1nnc(C(=O)Nc2ccc3cc(CN4CCNCC4)ccc3n2)c1C` [YA6060] yielded a half-life in data set [1] (oral) of 2.67 h. Moreover, in data set [1] (po), the peak level (Cmax) was 24000 ng/mL, the Tmax is 1.6 h, the bioavailability amounted to 75% and the half-life came to 2.67 h. The “protein level of β-catenin” value on β-catenin was “decreased”. In data set [2], this molecule gave an IC50 above 100000 nM. The “level of Axin 1” value on Axin 1 was “stabilizing”. The “expression of fibrosis and inflammation markers” value in the data set on TGF-β-treated LX-2 cells is “significantly reduced the expression of fibrosis markers”. The IC50 in data set [3] was 4.3 nM and 4 nM.
